Test results published in patent US20110263507A1 (priority 2007, published 2011).
Read-outs that look alike come from different tables or passages of the source. Where a SMILES comes first, the peptide text is derived from it. [ ]: non-standard residue; d: D form. Ala(indol-4-yl) = N[C@@H](Cc1cccc2[nH]ccc12)C(=O)O; 1Nal = N[C@@H](Cc1cccc2ccccc12)C(=O)O; NMeR = CN[C@@H](CCCNC(=N)N)C(=O)O; pGlu = O=C1CC[C@@H](C(=O)O)N1; Tle = CC(C)(C)[C@H](N)C(=O)O; dOrn = NCCC[C@@H](N)C(=O)O; Orn = NCCC[C@H](N)C(=O)O; Dab = NCC[C@H](N)C(=O)O

What was measured:
hNTS2 = target: T1, hNTS2 (Homo sapiens, UniProt O95665); test: Radioligand competition binding with [3H]NT, membranes of CHO-K1 cells expressing hNTS2
T1 construct: expressed in transfected cells; host or cells: CHO-K1

hNTS1 = target: T2, hNTS1 (Homo sapiens, UniProt P30989); test: Radioligand competition binding with [3H]NT, membranes of CHO-K1 cells expressing hNTS1; details: for hNTS1 Selectivity: Table 2, hNTS1 over hNTS2; for binding / Kd at hNTS1 in words: text b54
T2 construct: expressed in transfected cells; host or cells: CHO-K1
Description: CHO-K1 cells that had been stably transfected separately with the hNTS1 or hNTS2 genes were cultured in 150 mm (500 cm^2) Petri plates with 35 ml of Dulbecco's modified Eagle's medium containing 100 μM minimal essential medium nonessential amino acids (Life Technologies, Inc.) supplemented with 5% (v/v) FetalClone II bovine serum product (Hyclone Labs, Logan, Utah). […] The cellular pellet (in Tris-HCl buffer) was stored at […] until the radioligand binding was performed.
For use in binding assays, crude membrane preparations were prepared by centrifugation of the cellular pellet at 35,600×g for 10 min. The supernatant was decanted and discarded, and the cellular pellet was resuspended in 1 ml of Tris-HCl buffer followed by homogenization with a Brinkmann Polytron at setting 5.5 for 15 s. Centrifugation was repeated as above, the supernatant was decanted and discarded, and the cellular pellet was resuspended in 1 ml of Tris-HCl buffer followed by homogenization. Centrifugation was repeated a third time, the supernatant was discarded, and the final cellular pellet was suspended in 0.5-2.5 ml of Tris-HCl buffer. Protein concentration of the membrane preparation was estimated by the method of Lowry et al. using bovine serum albumin as a standard.
Incubation was at 20° C. for 40 min. The assay was routinely terminated by addition of ice-cold 0.9% NaCl (5×1.5 ml), followed by rapid filtration through a GF/B filter strip that had been pretreated with 0.2% or 2% polyethyleneimine. Details of binding assays have been described previously. […] Data were analyzed using the LIGAND program.

[1] = Table 2, read-out: hNTS2 Geometric Mean ∀ SEM (equilibrium dissociation constant Kd)
[2] = read-out: hNTS1 Geometric Mean ∀ SEM (equilibrium dissociation constant Kd)
[3] = text b54, read-out: Kd at hNTS2

T2 sequence (P30989 whole entry): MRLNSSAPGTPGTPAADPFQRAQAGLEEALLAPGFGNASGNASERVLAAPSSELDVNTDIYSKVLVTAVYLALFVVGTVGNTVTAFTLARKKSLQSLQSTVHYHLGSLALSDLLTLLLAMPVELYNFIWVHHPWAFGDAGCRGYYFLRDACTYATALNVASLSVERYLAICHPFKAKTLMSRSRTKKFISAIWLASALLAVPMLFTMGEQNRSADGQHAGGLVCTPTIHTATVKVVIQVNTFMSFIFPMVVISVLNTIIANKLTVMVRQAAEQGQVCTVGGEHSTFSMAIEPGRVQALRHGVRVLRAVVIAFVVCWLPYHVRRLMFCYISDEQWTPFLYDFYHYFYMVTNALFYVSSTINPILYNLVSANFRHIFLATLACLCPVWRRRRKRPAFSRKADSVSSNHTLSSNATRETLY
T1 sequence (O95665 whole entry): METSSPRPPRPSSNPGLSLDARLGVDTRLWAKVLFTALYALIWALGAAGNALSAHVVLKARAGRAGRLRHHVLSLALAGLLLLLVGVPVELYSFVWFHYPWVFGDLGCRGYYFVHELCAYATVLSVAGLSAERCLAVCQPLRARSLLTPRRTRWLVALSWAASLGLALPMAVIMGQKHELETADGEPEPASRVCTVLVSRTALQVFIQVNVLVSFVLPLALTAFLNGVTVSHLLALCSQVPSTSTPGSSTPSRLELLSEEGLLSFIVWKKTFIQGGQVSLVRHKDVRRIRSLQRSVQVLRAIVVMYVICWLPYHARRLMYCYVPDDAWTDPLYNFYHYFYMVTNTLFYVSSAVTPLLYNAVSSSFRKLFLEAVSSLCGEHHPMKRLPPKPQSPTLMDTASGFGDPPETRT

| SMILES | hNTS2 Selectivity (hNTS2; Table 2, hNTS2 over hNTS1) | Kd (hNTS2; [1]) [nM] | hNTS1 Selectivity (hNTS1) | Kd (hNTS1; [2]) [nM] | Kd (hNTS2; [3]) [nM] | Kd (hNTS2; text, read-out: Kd at hNTS2) [nM] | Kd (hNTS1; text, read-out: Kd at hNTS1) [nM] | Kd at hNTS2 in words (hNTS2; text b54) | binding / Kd at hNTS1 in words (hNTS1) | hNTS2 Selectivity (hNTS2; Table 4) |
| --- | --- | --- | --- | --- | --- | --- | --- | --- | --- | --- |
| CC[C@H](C)[C@H](NC(=O)[C@H](Cc1ccc(O)cc1)NC(=O)[C@@H]1CCCN1C(=O)[C@@H](CCCN)NC(=O)[C@H](N)CCCN)C(=O)N[C@@H](CC(C)C)C(=O)O [NT28, [D-Orn^8,D-Orn^9]NT(8-13)] | 0.3 | 1900 ± 100 | 3.2 | 600 ± 20 | – | – | – | – | – | – |
| CC[C@H](C)[C@H](NC(=O)[C@H](Cc1ccc(O)cc1)NC(=O)[C@@H]1CCCN1C(=O)[C@H](CCCNC(=N)N)NC(=O)[C@@H](N)CCN)C(=O)N[C@@H](CC(C)C)C(=O)O [NT29, [DAB^8]NT(8-13)] (H-[Dab]RPYIL-OH; N-terminus and C-terminus assumed) | 0.2 | 6.5 ± 0.3 | 5.6 | 1.2 ± 0.1 | – | – | – | – | – | – |
| CC[C@H](C)[C@H](NC(=O)[C@H](Cc1ccc(O)cc1)NC(=O)[C@@H]1CCCN1C(=O)[C@H](CCN)NC(=O)[C@@H](N)CCN)C(=O)N[C@@H](CC(C)C)C(=O)O [NT31, [DAB^8,DAB^9]NT(8-13)] (H-[Dab][Dab]PYIL-OH; N-terminus and C-terminus assumed) | 0.1 | 19.5 ± 0.7 | 9.1 | 2.1 ± 0.3 | – | – | – | – | – | – |
| CC[C@H](C)[C@H](NC(=O)[C@H](Cc1ccc(O)cc1)NC(=O)[C@@H]1CCCN1C(=O)[C@@H](N)CCCN)C(=O)N[C@@H](CC(C)C)C(=O)O [NT34, [L-Orn^9]NT(9-13)] (H-[Orn]PYIL-OH; N-terminus and C-terminus assumed) | 0.3 | 1190 ± 40 | 4.0 | 300 ± 50 | – | – | – | – | – | – |
| CC[C@H](C)[C@H](NC(=O)[C@H](Cc1ccc(O)cc1)NC(=O)[C@@H]1CCCN1C(=O)[C@H](N)CCCN)C(=O)N[C@@H](CC(C)C)C(=O)O [NT35, [D-Orn^9]NT(9-13)] (H-[dOrn]PYIL-OH; N-terminus and C-terminus assumed) | 0.1 | – | 19.1 | – | 10000 | 10500 | 550 | – | – | – |
| CC[C@H](C)[C@H](NC(=O)[C@@H](Cc1ccc(O)cc1)NC(=O)[C@@H]1CCCN1C(=O)[C@H](CCCN)NC(=O)[C@@H](N)CCCNC(=N)N)C(=O)N[C@@H](CC(C)C)C(=O)O [NT36, [L-Orn^9,D-Tyr^11]NT(8-13)] (H-R[Orn]P[dY]IL-OH; N-terminus and C-terminus assumed) | – | 1160 ± 20 | – | – | – | – | – | micromolar Kd's | no detectable binding | – |
| CC[C@H](C)[C@H](NC(=O)[C@@H](Cc1ccc(O)cc1)NC(=O)[C@@H]1CCCN1C(=O)[C@@H](CCCN)NC(=O)[C@@H](N)CCCNC(=N)N)C(=O)N[C@@H](CC(C)C)C(=O)O [NT37, [D-Orn^9,D-Tyr^11]NT(8-13)] (H-R[dOrn]P[dY]IL-OH; N-terminus and C-terminus assumed) | – | 1800 ± 100 | – | – | – | – | – | micromolar Kd's | no detectable binding | – |
| CC[C@H](C)[C@H](NC(=O)[C@H](Cc1ccc(O)cc1)NC(=O)[C@@H]1CCCN1C(=O)[C@H](CCCN)NC(=O)[C@H](CCCNC(=N)N)NC(=O)[C@@H]1CCCN1C(=O)[C@H](CCCCN)NC(=O)[C@H](CC(N)=O)NC(=O)[C@H](CCC(=O)O)NC(=O)[C@H](Cc1ccc(O)cc1)NC(=O)[C@H](CC(C)C)NC(=O)[C@@H]1CCC(=O)N1)C(=O)N[C@@H](CC(C)C)C(=O)O [NT60, [L-Orn^9]NT(1-13)] ([pGlu]LYENKPR[Orn]PYIL-OH; C-terminus assumed) | 0.2 | 17 ± 2 | 5.4 | 3.2 ± 0.1 | – | – | – | – | – | – |
| CC[C@H](C)[C@H](NC(=O)[C@H](Cc1ccc(O)cc1)NC(=O)[C@@H]1CCCN1C(=O)[C@@H](CCCN)NC(=O)[C@H](CCCNC(=N)N)NC(=O)[C@@H]1CCCN1C(=O)[C@H](CCCCN)NC(=O)[C@H](CC(N)=O)NC(=O)[C@H](CCC(=O)O)NC(=O)[C@H](Cc1ccc(O)cc1)NC(=O)[C@H](CC(C)C)NC(=O)[C@@H]1CCC(=O)N1)C(=O)N[C@@H](CC(C)C)C(=O)O [NT61, [D-Orn^9]NT(1-13)] ([pGlu]LYENKPR[dOrn]PYIL-OH; C-terminus assumed) | 0.2 | – | 4.4 | 1500 ± 100 | 6600 | – | – | – | – | – |
| CC[C@H](C)[C@H](NC(=O)[C@H](Cc1cccc2ccccc12)NC(=O)[C@@H]1CCCN1C(=O)[C@H](CCCNC(=N)N)NC(=O)[C@H](CCCNC(=N)N)NC(=O)[C@@H]1CCCN1C(=O)[C@H](CCCCN)NC(=O)[C@H](CC(N)=O)NC(=O)[C@H](CCC(=O)O)NC(=O)[C@H](Cc1ccc(O)cc1)NC(=O)[C@H](CC(C)C)NC(=O)[C@@H]1CCC(=O)N1)C(=O)N[C@@H](CC(C)C)C(=O)O [NT62, [L-3,1-Nal^11]NT(1-13)] ([pGlu]LYENKPRRP[1Nal]IL-OH; C-terminus assumed) | 0.6 | 14.2 ± 0.5 | 1.7 | 8.4 ± 0.3 | – | – | – | – | – | – |
| CC(C)C[C@H](NC(=O)[C@@H](NC(=O)[C@H](Cc1c[nH]c2ccccc12)NC(=O)[C@@H]1CCCN1C(=O)[C@H](CCCNC(=N)N)NC(=O)[C@H](N)CCCCN)C(C)(C)C)C(=O)O [NT66T, [D-Lys^8,L-Trp^11,tert-Leu^12]NT(8-13)] (H-[dK]RPW[Tle]L-OH; N-terminus and C-terminus assumed) | 7.7 | 18.1 ± 0.7 | 0.1 | 140 ± 19 | – | – | – | – | – | – |
| CC[C@H](C)[C@H](NC(=O)[C@H](Cc1c[nH]c2ccccc12)NC(=O)[C@@H]1CCCN1C(=O)[C@H](CCCNC(=N)N)NC(=O)[C@H](N)CCCCN)C(=O)N[C@@H](CC(C)C)C(=O)O [NT67T, [D-Lys^8,L-Trp^11]NT(8-13)] (H-[dK]RPWIL-OH; N-terminus and C-terminus assumed) | 2.2 | 8 ± 0.4 | 0.5 | 17 ± 2 | – | – | – | – | – | – |
| CN[C@@H](CCCNC(=N)N)C(=O)N[C@@H](CCN)C(=O)N1CCC[C@H]1C(=O)N[C@@H](Cc1cccc2[nH]ccc12)C(=O)N[C@H](C(=O)N[C@@H](CC(C)C)C(=O)O)C(C)(C)C [NT71, [N-methyl-Arg^8,DAB^9,L-neo-Trp^11,tert-leu^12]NT(8-13)] (H-[NMeR][Dab]P[Ala(indol-4-yl)][Tle]L-OH; N-terminus and C-terminus assumed) | 1.5 | 1.11 ± 0.03 | 0.7 | 1.71 ± 0.06 | – | – | – | – | – | – |
| CC(C)C[C@H](NC(=O)[C@@H](NC(=O)[C@H](Cc1cccc2[nH]ccc12)NC(=O)[C@@H]1CCCN1C(=O)[C@@H](CCCN)NC(=O)[C@@H](N)CCCNC(=N)N)C(C)(C)C)C(=O)O [NT77, [D-Orn^9,L-neo-Trp^11,tert-Leu^12]NT(8-13)] (H-R[dOrn]P[Ala(indol-4-yl)][Tle]L-OH; N-terminus and C-terminus assumed) | 3.3 | 460 ± 70 | 0.3 | 1500 ± 100 | – | – | – | – | – | 3.3 |
| CC(C)C[C@H](NC(=O)[C@@H](NC(=O)[C@H](Cc1c[nH]c2ccccc12)NC(=O)[C@@H]1CCCN1C(=O)[C@@H](CCCN)NC(=O)[C@@H](N)CCCNC(=N)N)C(C)(C)C)C(=O)O [NT77T, [D-Orn^9,L-Trp^11,tert-Leu^12]NT(8-13)] (H-R[dOrn]PW[Tle]L-OH; N-terminus and C-terminus assumed) | 4.8 | 320 ± 20 | 0.2 | 1530 ± 80 | – | – | – | – | – | – |
| CN[C@@H](CCCNC(=N)N)C(=O)N[C@H](CCCN)C(=O)N1CCC[C@H]1C(=O)N[C@@H](Cc1cccc2[nH]ccc12)C(=O)N[C@H](C(=O)N[C@@H](CC(C)C)C(=O)O)C(C)(C)C [NT78, [N-methyl-Arg^8,D-Orn^9,L-neo-Trp^11,tert-Leu^12]NT(8-13)] (H-[NMeR][dOrn]P[Ala(indol-4-yl)][Tle]L-OH; C-terminus assumed) | 3.4 | 380 ± 40 | 0.3 | 1300 ± 400 | – | – | – | – | – | – |
